Consider 13 molecules from patent EP0049203A1, “Benzoxazolinones substituted in the 6-position by an amino-alcohol or amino-ketone chain, their preparation and their therapeutic use” (RIOM LABORATOIRES- C.E.R.M. (Société Anonyme), priority 1980, dated 1982).

Assay [1] deals with Récepteurs adrénergiques α. The experiment in a line: Interference with noradrenaline-induced contraction (cumulative doses) of isolated vas deferens. The settings on record: rat vas deferens; for pA2: noradrenaline contraction; for INTERFERENCE AVEC LES RECEPTEURS ADRENERGIQUES α: result in words. The text has this:
(§1) L'activité pharmacologique des composés de l'invention a été révélée par recherche d'une interférence avec les récepteurs adrénergiques β1, β2 et α in vitro, conformément aux protocoles expérimentaux ci-après.
Récepteurs adrénergiques α : on étudie l'interférence des composés de l'invention sur la contraction du vas déferens isolé du rat, provoquée par des doses cumulatives de noradrénaline.
(§2) Les résultats sont exprimés dans le tableau I par les paramètres usuels de pharmacologie moléculaire, selon les critères utilisés par Van Rossum [Arch. Int.

Assay [2] addresses T1, récepteurs adrénergiques β2 du muscle trachéal de cobaye (Cavia porcellus, UniProt Q8K4Z4).
T1 construct: du muscle trachéal de cobaye; from tissue; host or cells: guinea pig tracheal muscle
The experiment in a line: Antagonism of the bronchodilator effects of isoprenaline on isolated tracheal muscle. The settings on record: guinea-pig tracheal muscle; for INTERFERENCE AVEC LES RECEPTEURS ADRENERGIQUES β2: result in words; for Kb: β2, antagonism of isoprenaline, read-out: pA2 (converted).
Description: as §1
Récepteurs adrénergiques β2 : on recherche l'antagonisme des effets bronchodilatateurs de l'isoprénaline sur les récepteurs p2 du muscle trachéal de cobaye.
as §2

The target in assay [3] is T2, récepteurs β1 de l'oreillette gauche de cobaye (Cavia porcellus, UniProt H0W3H1).
T2 construct: l'oreillette gauche de cobaye stimulée électriquement; from tissue; host or cells: guinea pig left atrium, electrically stimulated
T2 sequence (H0W3H1 1-470): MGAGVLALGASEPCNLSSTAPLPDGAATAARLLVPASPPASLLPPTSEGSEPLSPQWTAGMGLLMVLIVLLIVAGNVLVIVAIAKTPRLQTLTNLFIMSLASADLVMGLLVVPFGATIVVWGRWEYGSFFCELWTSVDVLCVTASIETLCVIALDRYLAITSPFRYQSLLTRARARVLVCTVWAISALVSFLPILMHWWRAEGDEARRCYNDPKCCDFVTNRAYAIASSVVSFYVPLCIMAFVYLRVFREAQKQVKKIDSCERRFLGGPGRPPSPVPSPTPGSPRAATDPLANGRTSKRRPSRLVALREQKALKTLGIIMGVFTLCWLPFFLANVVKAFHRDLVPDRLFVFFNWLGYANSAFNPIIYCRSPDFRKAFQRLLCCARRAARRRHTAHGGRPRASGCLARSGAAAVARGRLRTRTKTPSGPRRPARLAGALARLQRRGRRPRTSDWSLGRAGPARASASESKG
Put plainly: Antagonism of the positive inotropic effect of isoprenaline on electrically stimulated isolated left atrium. The settings on record: β1, guinea-pig left atrium; for Kb: antagonism of isoprenaline, read-out: pA2 (converted).
Description: as §1
(§3) Récepteurs adrénergiques β1 : on recherche l'antagonisme de l'effet inotrope positif de l'isoprénaline sur les récepteurs β1 de l'oreillette gauche de cobaye stimulée électriquement.
as §2

Assay [4] has as its system récepteurs β1 de l'oreillette gauche de cobaye. The description is as above. The settings on record: for cardiosélectivité: β1 versus β2, in words.
Description: as §1, §3, §2

The test system of assay [5] is souris. The experiment in a line: Thermal stimulus analgesia test (Eddy and Leimbach). The settings on record: Mus musculus, po; test de stimulus thermique; par voie orale chez la souris; read-out: DE 50 (dose qui augmente de 50 % le temps de réaction). It counts as in vivo. The protocol:
Dans le test de stimulus thermique [selon EDDY N.B., LEIMBACH D.J. Pharmacol. Exp. Ther., 107, 385-393, (1953)J la DE 50 de ce composé ― qui représente la dose de produit qui augmente de 50 % le temps de réaction des animaux traités par rapport à celui du groupe des animaux de contrôle - est de 4,4 mg/kg par voie orale chez la souris.

Assay [6] concerns souris. The experiment in a line: Chemical stimulus analgesia test (Siegmund; abdominal cramps). It counts as in vivo. The settings on record: Mus musculus, po; test de stimulus chimique; par voie orale chez la souris; read-out: DE 50 (dose qui inhibe de 50 % le nombre de crampes abdominales). The protocol:
Dans le test de stimulus chimique [SIEGMUND E., CADMUS R. GO LU - Proc. Soc. Exp. Biol. Med. 95, 729-731, (1957)] la DE 50 de ce composé - qui représente la dose qui inhibe de 50 % le nombre de crampes abdominales par rapport à celui du groupe des animaux de contrôle - est de 9 mg/kg par voie orale chez la souris.

T1 sequence (Q8K4Z4 whole entry): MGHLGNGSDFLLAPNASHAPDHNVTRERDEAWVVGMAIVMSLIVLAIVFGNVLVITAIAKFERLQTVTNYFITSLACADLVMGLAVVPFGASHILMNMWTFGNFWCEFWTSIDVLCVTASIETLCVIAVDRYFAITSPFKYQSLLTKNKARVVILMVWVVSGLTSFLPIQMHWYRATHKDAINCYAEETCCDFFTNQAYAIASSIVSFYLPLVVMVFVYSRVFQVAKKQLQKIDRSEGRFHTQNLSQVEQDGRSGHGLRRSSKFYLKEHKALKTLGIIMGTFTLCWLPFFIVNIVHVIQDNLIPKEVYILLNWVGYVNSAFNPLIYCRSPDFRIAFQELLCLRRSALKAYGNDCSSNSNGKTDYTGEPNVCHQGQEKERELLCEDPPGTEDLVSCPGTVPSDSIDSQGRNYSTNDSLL

For the molecule `COc1ccccc1N1CCN(CC(O)c2ccc3c(c2)oc(=O)n3C)CC1` (stereo not drawn) [compound 22], the pA2 result in assay [1] (α) is “pA2 = 5,7 ± 0,25”. In addition, the “INTERFERENCE AVEC LES RECEPTEURS ADRENERGIQUES β2” value in assay [2] was “Agoniste partiel”. For the same molecule, the Kb in assay [3] was 2820 nM.
Turning to `C[C@@H]([C@H](O)c1ccc2c(c1)oc(=O)n2C)N1CCN(c2ccc(F)cc2)CC1` (relative stereo) [compound 28], the “INTERFERENCE AVEC LES RECEPTEURS ADRENERGIQUES α” value in assay [1] is listed as “Inactif”. In addition, the “INTERFERENCE AVEC LES RECEPTEURS ADRENERGIQUES β2” value in assay [2] was “Inactif”. For the same molecule, in assay [4], the cardiosélectivité result is listed as “importante, voire totale”. Besides, in assay [3], the Kb is 6170 nM and the “pD'2” value is reported as 4.
Take `COc1ccccc1N1CCN([C@@H](C)[C@H](O)c2ccc3c(c2)oc(=O)n3C)CC1` (relative stereo) [compound 27, Erythro 2-[4-(2-méthoxyphényl)pipéraziny] 1-(3-méthyl-2-benzoxazolinon-6-yl) propanol]: in assay [1] (α), the pA2 is listed as 6,14 ± 0,31 and the “pD'2” value was 4,73 ± 0,38. In addition, in assay [2], the Kb is 20900 nM. The Kb in assay [3] is 2240 nM.
Consider `Cn1c(=O)oc2cc(C(O)CN3CCN(c4cccc(C(F)(F)F)c4)CC3)ccc21` (stereo not drawn) [compound 31, 2-[4-(3-trifluorométhyl)phénylpipérazinyl] 1-(3-méthyl 2-benzoxazolinon-6-yl) éthanol], for which the ED50 in assay [5] turned out to be 4.4 mg/kg; in assay [6], 9 mg/kg. Further, the “activité sur les récepteurs adrénergiques” value in assay [4] (adrenergic receptors in general (β1, β2, α), in words) was “n'a pas une activité de même niveau que les autres composés de l'invention”.
Consider `CC(C)(C)NCC(O)c1ccc2[nH]c(=O)oc2c1` (stereo not drawn) [compound 19], for which the “INTERFERENCE AVEC LES RECEPTEURS ADRENERGIQUES α” value in assay [1] is listed as “Inactif”. The values for the Kb in assay [2] and in assay [3] were 1480 nM and 224 nM, respectively.
`Cn1c(=O)oc2cc(C(O)CN3CCC(Cc4ccccc4)CC3)ccc21` (stereo not drawn) [compound 25, 2-(4-benzylpipéradinyl) 1-(3-méthyl 2-benzoxazolinon-6-yl) éthanol]: the “INTERFERENCE AVEC LES RECEPTEURS ADRENERGIQUES β2” value in assay [2] was “Inactif”. The cardiosélectivité entry in assay [4] is “importante, voire totale”. In assay [3], the Kb is 2000 nM and the “pD'2” value is on record as 4,2.
As for `COc1ccccc1N1CCN(CC(=O)c2ccc3c(c2)oc(=O)n3C)CC1` [compound 9, 2 [4-(2-méthoxyphényl)pipérazinyl] 1-(3-méthyl 2-benzoxazolinon-6-yl) éthanone], in assay [3], the Kb was 3980 nM and the “pD'2” value was 3,8.
In the case of `C[C@@H]([C@H](O)c1ccc2c(c1)oc(=O)n2C)N1CCC(Cc2ccccc2)CC1` (relative stereo) [compound 29], in assay [2], the “INTERFERENCE AVEC LES RECEPTEURS ADRENERGIQUES β2” value was “Agoniste partiel”. For the same molecule, in assay [3], the Kb was 2950 nM and the “pD'2” value is 4,50 ± 0,21.
In the case of `NCC(O)c1ccc2[nH]c(=O)oc2c1` (stereo not drawn) [compound 16], the pA2 entry in assay [1] (α) is “pA2 = 4,73 ± 0,52”. In assay [2], the “INTERFERENCE AVEC LES RECEPTEURS ADRENERGIQUES β2” value is reported as “Inactif”. For the same molecule, the Kb in assay [3] is 6310 nM.
Turning to `Cn1c(=O)oc2cc(C(=O)CN3CCC(Cc4ccccc4)CC3)ccc21` [compound 13, 2-(4-benzyl-pipéridinyl) 1-(3-méthyl 2-benzoxazolinon-6-yl) éthanone], the Kb in assay [3] is 5010 nM.
On to `CC(C(=O)c1ccc2c(c1)oc(=O)n2C)N1CCN(c2ccc(F)cc2)CC1` (stereo not drawn) [compound 10], for which the pA2 entry in assay [1] (α) is given as “pA2 = 5,3 ± 0,12”. Besides, the “INTERFERENCE AVEC LES RECEPTEURS ADRENERGIQUES β2” value in assay [2] was “Agoniste partiel”. Further, in assay [3], the Kb is 1260 nM and the “pD'2” value is given as 4,59 ± 0,61.
For the molecule `CC(C)NCC(O)c1ccc2[nH]c(=O)oc2c1` (stereo not drawn) [compound 18, 2-isopropylamino 1-(2-benzoxazolinon-6-yl) éthanol], in assay [1] (α), the pA2 result is recorded as “pA2 = 6,03 ± 0,43”. Also, the Kb in assay [2] was 776 nM; in assay [3], 34.7 nM. In assay [4], the cardiosélectivité result was “de faible intensité”.
With `O=c1[nH]c2ccc(C(O)CN3CCN(c4ccc(F)cc4)CC3)cc2o1` (stereo not drawn) [compound 30], in assay [2], the “INTERFERENCE AVEC LES RECEPTEURS ADRENERGIQUES β2” value is reported as “Inactif”. In addition, in assay [4], the cardiosélectivité entry is reported as “importante, voire totale”. Besides, the Kb in assay [3] was 3980 nM.
